The term melting point denotes the temperature of the solid-liquid transition. Take `Cc1ccc(-c2cccc(-c3nc(C(C)C)[nH]c3-c3cccc(C)n3)c2)cc1`: the melting point is 76 to 79 °C. With `CCOC(=O)C1=C(C)NC(N)=C(C(=O)OC(C)C)C1c1ccccc1C(F)(F)F` (stereo not given), the melting point came to 106 °C. In turn, `COCNC(=S)n1nc(Oc2ccc(C#N)cc2C(F)(F)F)cc1C` gave a melting point of 89 to 90 °C. On to `COc1ccc(C(=O)C(=O)c2ccccn2)cc1`, for which the melting point lay within 97 to 98 °C. With `COC(=O)Cn1c(C)ccc1C` the figure was 44 to 46 °C; with `Nc1nc(N)nc(C23CCN(CC2)CC3)n1`, over 245 °C. Molecule `Cn1c(C(F)(F)F)cc(=O)n(-c2cc(OCc3cccc(F)c3)c(Cl)cc2F)c1=O` displayed a melting point of 135 to 137 °C. For the molecule `NC(=O)CN(CCCCCCNc1nsc2nccn12)S(=O)(=O)c1cccc2ccccc12`, the melting point was 141 to 144 °C. As for `Cc1nn(C)c2c1Nc1ncccc1N(C)C2=O`, the figure is 141 to 142 °C; as for `O=C(CO)c1cccc(Br)c1`, 100 to 101 °C; as for `COc1ccn(O)c(=O)c1`, 174 to 175 °C. For the molecule `CCC(CC)Cn1c(=O)c(=O)[nH]c2cc(Cl)c([N+](=O)[O-])cc21`, the melting point fell in the range of 232 to 233 °C.

Molecule `Cc1c(Cl)c2c(c3oc4ccccc4c(=O)c13)CC(C(=O)O)O2` (stereo not given) displayed a melting point of 284 to 287 °C. With `CC(c1ccc(C=Cc2ccccc2)o1)N(O)C(N)=O` (stereo not given) the figure was 140 °C; with `CC(=O)Oc1c(Cc2ccccc2)ccc2c1ccn2C`, 56 to 58 °C. As for `Cc1ncnn1-c1ccccc1C#N`, the figure is 119 to 120 °C.

For `CC(CCNC(=O)CC#N)NC(=O)CC#N` (stereo not given), the melting point is 145 °C.

On to `N=C(N)Nc1ccc(CCCC(=O)NC(COCc2ccccc2)C(=O)NCCCC(CCCNC(=O)OCc2ccccc2)NC(=O)OCc2ccccc2)cc1` (stereo not given), for which the melting point is 157 to 160 °C. As for `CC#CN1N=C(c2ccc(F)cc2)c2cc(Cl)ccc2CS1(=O)=O`, the figure is 139 to 140 °C; as for `COCCn1nc2c(N)nc3ccccc3c2c1CC(C)(C)C#N`, 206 to 208 °C; as for `COc1cc(C)nc(NC(=O)NS(=O)(=O)c2c(C)nsc2OCC(F)(F)F)n1`, 159 to 161 °C. With `CCCC=Cc1c(C(C)C)nc(C(C)C)c(C(=O)OCC)c1-c1ccc(-c2ccccc2)cc1` the figure was 104 to 106 °C; with `CSCC(C)(C)NC(=O)c1c(I)cccc1C(=O)Nc1ccc(C(C)n2ccc(C(F)(F)F)n2)cc1C` (stereo not given), 79 to 86 °C. `CN(Cc1cc2ccccc2n1C)C(=O)/C=C/c1ccc(NC(=O)CCC(N)=O)nc1` registered a melting point of 225 to 227 °C. As for `COC(=O)NC(=O)Nc1nc2c(Cl)cccc2s1`, the figure is 319 to 320 °C; as for `C=CCOc1cc(-n2c(OC)nc(C(F)(F)F)cc2=O)c(F)cc1Br`, 107 to 110 °C. As for `COc1ccc(CNC(=O)c2ccc([N+](=O)[O-])cc2N)cc1`, the figure is 129 to 131 °C; as for `Nc1ncnc2c1nc(Br)n2Cc1ccccc1`, 199 to 201 °C; as for `Cc1cc(C)c(CO)c(-c2ccc(F)c(C)c2)c1`, 74 to 75 °C. `CC(C)(C)c1ccc2c(c1)OC(C(F)(F)C(F)(F)F)C(C(=O)O)=C2` (stereo not given) had a melting point of 171 to 174 °C.

On to `COc1ccc(Sc2nccn2C)c([N+](=O)[O-])c1`, for which the melting point was in the range of 117 to 120 °C. With `N#Cc1cc(NC(=O)c2cc3ccccc3s2)ccc1N1CCN(CCO)CC1` the figure was 238 to 239 °C; with `CN(C)C=Nc1nc(OCOC(=O)C(C)(C)C)ncc1F`, 86 to 88 °C.

For `CC(=O)NC1(CNS(=O)(=O)c2ccccc2)CCN(C(=O)OC(C)(C)C)CC1`, the melting point lay in the range of 226 to 227 °C. `O=S1(=O)CCN(Cc2ccc(Br)cn2)CC1` displayed a melting point of 129 to 131 °C. As to `Nc1ccc(C(=O)N2Cc3cccn3Cc3ccccc32)c(Cl)c1`, the melting point was in the range of 210 to 212 °C.

Consider `OC1(c2ccccc2)CCN(CCCC2COc3ccccc3O2)CC1` (stereo not given), for which the melting point lay in the range of 95 to 98 °C. With `CCc1cnc2c(NC(=O)c3c(Cl)cccc3Cl)cccc2c1C(N)=O`, the melting point lay within 247 to 248 °C. With `O=C(CCCl)N(c1ccccc1)c1ccccc1` the figure was 93 to 94 °C; with `Nc1cc(N)c(SCCO)cc1SCCO`, 144 °C; with `CN(C)CC=CC(=O)Nc1ccc2ncc(C#N)c(Nc3cccc(Br)c3)c2c1`, 209 to 211 °C. As for `N#Cc1c(N2CCNCC2)c(F)cc2c(=O)c(C(=O)O)cn(C3CC3)c12`, the figure is over 300 °C; as for `CCOC(=O)c1cnc2nc(OCC)ccc2c1Cl`, 72 to 75 °C; as for `Cc1ccccc1NC(=NC#N)NC(NC(=O)Cc1ccc2c(c1)OCO2)C(C)(C)C` (stereo not given), 152 to 153 °C.

`CCOC(OCC)N1CCNC1=N[N+](=O)[O-]`: the melting point is 100 to 102 °C.

As to `Cc1cc(=O)n(-c2cc(OC(C)C)c(Cl)cc2F)c(=O)n1C(F)F`, the melting point lay within 97 to 99 °C. With `Nc1ccc(Oc2ccccc2-c2ccccc2Oc2ccc(N)c(N)c2)cc1N` the figure was 172 to 174 °C; with `CC(=O)C1=C(O)C(C(=O)C=Cc2ccccc2)C(=O)OC1=O` (stereo not given), 154 to 155 °C. With `O=C(O)CN1C(=O)C(=CC=Cc2ccccc2-c2ccccc2)SC1=S` the figure was 246 to 249 °C; with `COc1ccc(-c2c(Cl)c(CCl)nc3sc4c(c23)CCN(C(=O)c2ccccc2)C4)cc1OC`, 208 to 209 °C.

`COCCc1nc2c(N)nc3cc(OCc4cccc(N)c4)ccc3c2n1CC(C)(C)O` came in with a melting point of 203 to 206 °C. As for `CCOC(=O)c1ncsc1-c1cc(F)cc(F)c1`, the figure is 112 to 113 °C; as for `CC(C)(C)C(F)(F)c1ccc(C(N)=O)cc1`, 128 to 132 °C.

`CCOC(=O)C1=C(C)NC(=S)N(C(=O)c2ccccc2)C1c1cccc([N+](=O)[O-])c1` (stereo not given): the melting point fell in the range of 173 to 175 °C.

`C[C@H](CSC(=O)c1ccccc1)C(=O)N1C(=O)N(Cc2ccccc2)C[C@H]1C(=O)O`: the melting point came out at 145 °C. With `N#Cc1ccc(C2=NNC(=O)C3CC23)cc1` (stereo not given) the figure was 265 to 266 °C. As for `O=C1c2cc([N+](=O)[O-])ccc2CCn2cccc21`, the figure is 190 to 192 °C; as for `CNC1(C(=O)O)CCN(OC)CC1`, over 250 °C; as for `O=c1c(Cc2ccncc2)c(-c2ccc(Cl)cc2)[nH]c2c(Br)cc(Br)cc12`, 198 to 200 °C. With `COC(=O)C(c1ccccc1)N1CCN(c2ccc(NC(=O)c3ccccc3-c3ccccc3)cc2)CC1` (stereo not given) the figure was 125 °C; with `CCN(CC)CCn1nnnc1-c1ccc2oc3ncccc3c(=O)c2c1`, 126 to 128 °C. On to `Cc1ccc(Cc2c[nH]c(NCCSCc3ccco3)nc2=O)cn1`, for which the melting point was 147 to 152 °C. With `CCOC(OCC)(c1ccc(F)cc1)C1CCN(CCc2c(C)nc3scc(C)n3c2=O)CC1` the figure was 116 °C; with `O=c1[nH]c2cc(Cl)ccc2c(O)c1-c1cccc(Oc2ccccc2)c1`, 303 to 306 °C. With `CC1(C)C(=O)Oc2ccc(OS(C)(=O)=O)cc21` the figure was 120 to 121 °C.

The values above are taken from a melting point compilation (Tetko et al.; mined from patent text by program, amines drawn as free bases though some values may be those of a salt).
